Data from patent US20100324086A1, “COMPOUNDS AND METHODS” (Novasaid AB, priority 2008, published 2010).

Key:
[1] = target: T1, recombinant, membrane-bound mPGES-1 (Homo sapiens, UniProt O14684); test: Thiobarbituric acid assay (TBA-MDA assay), inhibition of mPGES-1; assay type: biochemical; conditions: remaining PGH2 measured at 535 nm
T1 sequence (O14684 1-152): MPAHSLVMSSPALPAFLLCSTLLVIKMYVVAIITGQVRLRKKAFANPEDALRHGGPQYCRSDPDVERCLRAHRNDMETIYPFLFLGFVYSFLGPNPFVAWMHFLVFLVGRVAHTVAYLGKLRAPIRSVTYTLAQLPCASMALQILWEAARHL
Source text: Malondialdehyde is a product of lipid peroxidation and reacts with thiobarbituric acid forming a red product that absorbs at 535 nm (W. G. Niehaus, Jr and B. Samuelsson, Eur. J. Biochem 6, 126 (1968). The extinction coefficient of the TBA-MDA conjugate is 1.56×10^5 M^−1 cm^−1 (E. D. Wills. Biochem. J. 113, 315 (1969).
The method used for detection of inhibition of mPGES-1 is based on the detection of the amount of remaining PGH2. This method was described more than 20 years ago by Basevich et al (Bioorg. Khim. 1983, 9(5), 658-665.
The assay used was a modified variant and used citric acid instead of the TCA-TBA-HCl reagent described in the original assay. In this assay recombinant, membrane-bound mPGES-1 was incubated with PGH2. The reaction was stopped by adding citric acid with a final pH of 3 and a large excess of FeCl2 (20 mM) to convert any remaining PGH2 into MDA and […]. TBA reagent was finally added (0.67%) and the samples were heated at 80° C. for 30 min. The absorbance of the conjugate was measured at 535 nm.
The product of mPGES-1 (PGE2) was not measured directly in this assay, but rather the remaining substrate (PGH2) indirectly by adding FeCl2 that converts PGH2 into […] and 12-HHT. As a positive control a known mPGES-1 inhibitor, MK-886, was used and the new inhibitors were compared with the inhibition of MK-886 (% of MK-886 inhibition).

[2] = test system: A549 lung carcinoma cells; test: A549 assay, PGE2 content in supernatant by EIA; assay type: cell-based; conditions: TNFalfa and IL-1beta induced 16 h, 30 min compound, then 10 μM arachidonic acid 30 min
Description: A549 lung carcinoma cells, seeded at a density of 10,000 cells/well, were grown in 96 well tissue culture plates. TNFalfa (5 ng/ml) and […] (5 ng/ml) were added and the cells were incubated for 16 hours. Cells were washed in PBS and test compounds at the appropriate concentration in HBSS/0.1% BSA were added. After 30 minutes incubation with test compounds, 10 μM arachidonic acid was added and cells were further incubated for 30 minutes. Supernatant was collected and analyzed for PGE2 content by EIA according to manufacturer's instructions.

| IC50 [1] | EC50 [2] | EC50 ([2]; Homo sapiens, A549) | Structure (SMILES) |
| --- | --- | --- | --- |
| 800 nM | 2960 nM |  | O=C(Nc1cccc2cccnc12)c1cccc(NC(=O)c2ccccc2Cl)c1 [Compound 8, 3-(2-Chloro-benzoylamino)-N-(quinolin-8-yl-)-benzamide] |
| 720 nM |  | 5400 nM | O=C(NC1CCc2ccccc21)c1cccc(NC(=O)c2ccccc2Cl)c1 (centres unmarked) [Compound 34, 3-(2-Chloro-benzoylamino)-N-indan-1-yl-benzamide] |
| 290 nM |  | 400 nM | C[C@H](NC(=O)c1cccc(NC(=O)c2ccccc2C(F)(F)F)c1)c1cccc2ccccc12 [Compound 77, N-[3-((S)-1-Naphthalen-1-yl-ethylcarbamoyl)-phenyl]-2-trifluoromethyl-benzamide] |
| 200 nM |  | 1230 nM | C[C@H](NC(=O)c1cccc(NC(=O)c2ccccc2I)c1)c1cccc2ccccc12 [Compound 79, 2-Iodo-N-[3-((S)-1-naphthalen-1-yl-ethylcarbamoyl)-phenyl]-benzamide] |
| 120 nM |  | 450 nM | C[C@@H](NC(=O)c1cccc(NC(=O)c2ccccc2C(F)(F)F)c1)c1cccc2ccccc12 [Compound 93, N-[3-((R)-1-Naphthalen-1-yl-ethylcarbamoyl)-phenyl]-2-trifluoromethyl-benzamide] |
| 230 nM |  |  | C[C@@H](NC(=O)c1cccc(NC(=O)c2ccccc2I)c1)c1cccc2ccccc12 [Compound 96, 2-Iodo-N-[3-((R)-1-naphthalen-1-A-ethylcarbamoyl)-phenyl]-benzamide] |
| 290 nM |  |  | C[C@@H](NC(=O)c1cccc(NC(=O)c2ccccc2Cl)c1)c1cccc2ccccc12 [Compound 101, 2-Chloro-N-[3-((R)-1-naphthalen-1-yl-ethylcarbamoyl)-phenyl]-benzamide] |
| 180 nM |  |  | O=C(NCc1cccc2ccccc12)c1cccc(NC(=O)c2ccccc2Br)c1 [Compound 103, 2-Bromo-N-{3-[(naphthalen-1-ylmethyl)-carbamoyl]-phenyl}-benzamide] |
| 1100 nM |  | 640 nM | O=C(NCc1cccc2ccccc12)c1cccc(NC(=O)c2ccccc2F)c1 [Compound 104, 2-Fluoro-N-{3-[(naphthalen-1-ylmethyl)-carbamoyl]-phenyl}-benzamide] |
| 520 nM |  |  | O=C(NCc1cccc2ccccc12)c1cccc(NC(=O)c2c(Cl)cccc2Cl)c1 [Compound 105, 2,6-Dichloro-N-{3-[(naphthalen-1-ylmethyl)-carbamoyl]-phenyl}-benzamide] |
| 2200 nM |  |  | COc1cccc(OC)c1C(=O)Nc1cccc(C(=O)NCc2cccc3ccccc23)c1 [Compound 108, 2,6-Dimethoxy-N-{3-[(naphthalen-1-ylmethyl)-carbamoyl]-phenyl}-benzamide] |
| 130 nM |  |  | O=C(NCc1cccc2ccccc12)c1cccc(NC(=O)c2ccccc2C(F)(F)F)c1 [Compound 109, N-{3-[(Naphthalen-1-ylmethyl)-carbamoyl]-phenyl}-2-trifluoromethyl-benzamide] |
| 330 nM |  |  | Cc1ccccc1C(=O)Nc1cccc(C(=O)NCc2cccc3ccccc23)c1 [Compound 110, N-{3-[(Naphthalen-1-ylmethyl)-carbamoyl]-phenyl}-2-methyl-benzamide] |
| 220 nM |  |  | O=C(NCc1cccc2ccccc12)c1cccc(NC(=O)c2ccccc2I)c1 [Compound 112, 2-Iodo-N-{3-[(naphthalen-1-ylmethyl)-carbamoyl]-phenyl}-benzamide] |
| 2500 nM |  |  | O=C(NCc1cccc2ccccc12)c1cccc(NC(=O)c2ccccc2-c2cccs2)c1 [Compound 116, N-{3-[(Naphthalen-1-ylmethyl)-carbamoyl]-phenyl}-2-thiopene-2-yl-benzamide] |
| 1000 nM |  |  | O=C(NCc1cccc2ccccc12)c1cccc(NCc2ccccc2Br)c1 [Compound 122, 3-(2-Bromo-benzylamino)-N-naphthalen-1-ylmethyl-benzamide] |
| 1800 nM |  |  | O=C(Nc1cccc(CNCc2ccccc2C(F)(F)F)c1)c1ccccc1C(F)(F)F [Compound 125, 2-Trifluoromethyl-N-{3-[(2-trifluoromethyl-benzylamino)-methyl]-phenyl}-benzamide] |
| 70 nM |  |  | O=C(NCc1ccccc1C(F)(F)F)c1cccc(NC(=O)c2ccccc2C(F)(F)F)c1 [Compound 134, 3-(2-Trifluoromethyl-benzoylamino)-N-(2-trifluoromethyl-benzyl)-benzamide] |

| IC50 [1] | EC50 [2] | EC50 ([2]; Homo sapiens, A549) | Structure (SMILES) |
| --- | --- | --- | --- |
| 65 nM |  |  | O=C(NCc1ccccc1Br)c1cccc(NC(=O)c2ccccc2C(F)(F)F)c1 [Compound 135, N-(2-Bromo-benzyl)-3-(2-trifluoromethyl-benzoylamino)-benzamide] |
| 200 nM |  |  | O=C(NCc1ccccc1-c1ccccc1)c1cccc(NC(=O)c2ccccc2C(F)(F)F)c1 [Compound 136, N-(2-Phenyl-benzyl)-3-(2-trifluoromethyl-benzoylamino)-benzamide] |
| 320 nM |  |  | O=C(NCc1cccc(-c2ccccc2)c1)c1cccc(NC(=O)c2ccccc2C(F)(F)F)c1 [Compound 137, N-(3-Phenyl-benzyl)-3-(2-trifluoromethyl-benzoylamino)-benzamide] |
| 160 nM |  |  | O=C(NCc1cccc(Br)c1)c1cccc(NC(=O)c2ccccc2C(F)(F)F)c1 [Compound 138, N-(3-Bromo-benzyl)-3-(2-trifluoromethyl-benzoylamino)-benzamide] |
| 75 nM |  |  | Cc1cccc(CNC(=O)c2cccc(NC(=O)c3ccccc3C(F)(F)F)c2)c1C [Compound 139, N-(2,3-Dimethyl-benzyl)-3-(2-trifluoromethyl-benzoylamino)-benzamide] |
| 1900 nM |  |  | O=C(Nc1ccc2cccc(O)c2n1)c1cccc(NC(=O)c2ccccc2C(F)(F)F)c1 [Compound 140, N-(8-hydroxy-quinolin-2-yl)-3-(2-trifluoromethyl-benzoylamino)-benzamide] |
| 280 nM |  |  | O=C(NCc1ccccc1)c1cccc(NC(=O)c2ccccc2C(F)(F)F)c1 [Compound 141, N-(Benzyl)-3-(2-trifluoromethyl-benzoylamino)-benzamide] |
| 1000 nM |  |  | Cc1ccccc1CNC(=O)c1cccc(NC(=O)c2ccccc2C(F)(F)F)c1 [Compound 142, N-(2-Methyl-benzyl)-3-(2-trifluoromethyl-benzoylamino)-benzamide] |
| 220 nM |  |  | O=C(NCc1ccccc1Cl)c1cccc(NC(=O)c2ccccc2C(F)(F)F)c1 [Compound 143, N-(2-Chloro-benzyl)-3-(2-trifluoromethyl-benzoylamino)-benzamide] |
| 840 nM |  |  | COc1ccccc1CNC(=O)c1cccc(NC(=O)c2ccccc2C(F)(F)F)c1 [Compound 144, N-(2-Methoxy-benzyl)-3-(2-trifluoromethyl-benzoylamino)-benzamide] |
| 470 nM |  |  | CN(C)c1ccccc1CNC(=O)c1cccc(NC(=O)c2ccccc2C(F)(F)F)c1 [Compound 145, N-(2-Dimethylamino-benzyl)-3-(2-trifluoromethyl-benzoylamino)-benzamide] |
| 170 nM |  |  | O=C(NCc1ccccc1N1CCCCC1)c1cccc(NC(=O)c2ccccc2C(F)(F)F)c1 [Compound 146, N-(2-piperidin-1-yl-benzyl)-3-(2-trifluoromethyl-benzoylamino)-benzamide] |
| 110 nM |  |  | O=C(NCc1ccccc1OC(F)(F)F)c1cccc(NC(=O)c2ccccc2C(F)(F)F)c1 [Compound 147, N-(2-Trifluoromethoxy-benzyl)-3-(2-trifluoromethyl-benzoylamino)-benzamide] |
| 990 nM |  |  | O=C(NCc1cccc2c1OCCO2)c1cccc(NC(=O)c2ccccc2C(F)(F)F)c1 [Compound 148, N-(2,3-dihydro-benzo[1,4]dioxin-5-ylmethyl)-3-(2-trifluoromethyl-benzoylamino)-benzamide] |
| 2000 nM |  |  | O=C(NCc1ccccc1N1CCOCC1)c1cccc(NC(=O)c2ccccc2C(F)(F)F)c1 [Compound 149, N-(2-morpholin-4-yl-benzyl)-3-(2-trifluoromethyl-benzoylamino)-benzamide] |
| 68 nM |  |  | O=C(Nc1nc2cc(Cl)ccc2o1)c1cccc(NC(=O)c2ccccc2C(F)(F)F)c1 [Compound 164, N-(3-(5-chlorobenzo[d]oxazol-2-ylcarbamoyl)phenyl)-2-(trifluoromethyl)benzamide] |
| 53 nM |  |  | O=C(Nc1ccc(-c2ccccc2)cn1)c1cccc(NCc2ccccc2C(F)(F)F)c1 [Compound 166, 3-[2-(Trifluoromethyl)-benzylamino]-N-(5-phenyl-pyridine-2-yl)-benzamide] |
